Assay results taken from ChEMBL document CHEMBL1138481, “Compounds binding to the S2-S3 pockets of thrombin” (J Med Chem, 2009).

How the values were obtained:
[1] = Inhibition of human alpha thrombin by surface plasmon resonance assay
[2] = Inhibition of human alpha thrombin by chromogenic substrate enzyme assay

| Structure (SMILES) | Kd [1] [µM] | IC50 [2] [µM] |
| --- | --- | --- |
| O=C(NCc1cccs1)[C@@H]1CCCN1C(=O)Cc1ccc2c(c1)OCO2 | 250 | > 400 |
| CNC(=O)[C@@H]1CCCN1C(=O)CC1CCCCC1 | > 1000 | > 400 |
| COCCNC(=O)[C@@H]1CCCN1C(=O)CCc1ccc(Cl)cc1 | 620 | > 400 |
| CCCNC(=O)[C@@H]1CCCN1C(=O)[C@H](N)Cc1ccc(Cl)cc1 | 45 | 210 |
| CCCNC(=O)[C@@H]1CCCN1C(=O)[C@H](N)C(c1ccccc1)c1ccccc1 | – | 18 |
| COCCNC(=O)[C@@H]1CCCN1C(=O)[C@H](N)C(c1ccccc1)c1ccccc1 | 6.8 | 89 |
| CCCNC(=O)[C@@H]1CCCN1C(=O)CCc1ccc(Cl)cc1 | > 1000 | > 400 |
| CC(C)CNC(=O)[C@@H]1CCCN1C(=O)[C@H](N)C1CCCCC1 | 49 | 230 |
| N[C@@H](C(=O)N1CCC[C@H]1C(=O)NCC1CCCCC1)C1CCCCC1 | 9 | 20 |
| CNC(=O)[C@@H]1CCCN1C(=O)CC(c1ccccc1)c1ccccc1 | > 1000 | > 400 |
| COCCNC(=O)[C@@H]1CCCN1C(=O)CC1CCCCC1 | > 1000 | > 400 |
| CNC(=O)[C@@H]1CCCN1C(=O)CC1(O)c2ccccc2-c2ccccc21 | > 1000 | > 400 |
| COCCNC(=O)[C@@H]1CCCN1C(=O)CC1(O)c2ccccc2-c2ccccc21 | 750 | > 400 |
| CNC(=O)[C@@H]1CCCN1C(=O)Cc1ccc2c(c1)OCO2 | > 1000 | > 400 |
| COCCNC(=O)[C@@H]1CCCN1C(=O)[C@H](N)Cc1ccc(Cl)cc1 | 140 | > 400 |
| N[C@H](Cc1ccc(Cl)cc1)C(=O)N1CCC[C@H]1C(=O)NCc1cccs1 | 2.2 | 13 |
| CNC(=O)[C@@H]1CCCN1C(=O)[C@H](NS(=O)(=O)Cc1ccccc1)C1CCCCC1 | 35 | 170 |
| COCCNC(=O)[C@@H]1CCCN1C(=O)[C@H](O)C1CCCCC1 | > 1000 | > 400 |

| Structure (SMILES) | Kd [1] [µM] | IC50 [2] [µM] |
| --- | --- | --- |
| CCCNC(=O)[C@@H]1CCCN1C(=O)CC(c1ccccc1)c1ccccc1 | 270 | > 400 |
| O=C(NCc1cccs1)[C@@H]1CCCN1C(=O)CC(c1ccccc1)c1ccccc1 | 34 | 120 |
| N[C@@H](C(=O)N1CCC[C@H]1C(=O)NCc1cccs1)C(c1ccccc1)c1ccccc1 | 0.27 | 1.6 |
| CNC(=O)[C@@H]1CCCN1C(=O)[C@H](N)C1CCCCC1 | 790 | > 400 |
| O=C(NCc1cccs1)[C@@H]1CCCN1C(=O)CCc1ccc(Cl)cc1 | 700 | > 400 |
| CCCNC(=O)[C@@H]1CCCN1C(=O)Cc1ccc2c(c1)OCO2 | > 1000 | > 400 |
| O=C(NCc1cccs1)[C@@H]1CCCN1C(=O)CC1(O)c2ccccc2-c2ccccc21 | 23 | 49 |
| N[C@@H](C(=O)N1CCC[C@H]1C(=O)NCc1cccs1)C1CCCCC1 | 1.1 | 4.2 |
| CCCNC(=O)[C@@H]1CCCN1C(=O)[C@H](N)C1CCCCC1 | 27 | 120 |
| COCCNC(=O)[C@@H]1CCCN1C(=O)[C@H](N)C1CCCCC1 | 110 | > 400 |
| CNC(=O)[C@@H]1CCCN1C(=O)[C@H](N)Cc1ccc(Cl)cc1 | 550 | > 400 |
| O=C(NCc1cccs1)[C@@H]1CCCN1C(=O)CC1CCCCC1 | 1000 | > 400 |
| CCCNC(=O)[C@@H]1CCCN1C(=O)CC1CCCCC1 | > 1000 | > 400 |
| CNC(=O)[C@@H]1CCCN1C(=O)[C@H](N)C(c1ccccc1)c1ccccc1 | 38 | 230 |
| CCCNC(=O)[C@@H]1CCCN1C(=O)CC1(O)c2ccccc2-c2ccccc21 | 99 | 380 |
| COCCNC(=O)[C@@H]1CCCN1C(=O)Cc1ccc2c(c1)OCO2 | > 1000 | > 400 |
| CNC(=O)[C@@H]1CCCN1C(=O)CCc1ccc(Cl)cc1 | > 1000 | > 400 |
| COCCNC(=O)[C@@H]1CCCN1C(=O)CC(c1ccccc1)c1ccccc1 | > 1000 | > 400 |
